≈ marks a conversion by molar mass, not a printed value. Where a name gives a salt, the structure may show the parent alone. Read-outs that look alike come from different tables or passages of the source.
Columns and labels:
[1] = test system: Pseudomonas aeruginosa MB 3833; assay: Minimum Growth Inhibitory Concentration (MIC), Pseudomonas aeruginosa MB 3833; format: cell-based; conditions: MB3833; Table 1, bacterium 8: Pseudomonas aeruginosa MB 3833
Excerpt: (§1) Minimum Growth Inhibitory Concentration (MIC) mcg/ml
8. Pseudomonas aeruginosa MB 3833

[2] = test system: Streptococcus faecalis ATCC 8043; assay: Minimum Growth Inhibitory Concentration (MIC), Streptococcus faecalis ATCC 8043; format: cell-based; conditions: Enterococcus faecalis, ATCC8043; Table 1, bacterium 9: Streptococcus faecalis ATCC 8043
Excerpt: as §1
9. Streptococcus faecalis ATCC 8043

Escherichia coli RGN 823 = assay: Minimum Growth Inhibitory Concentration (MIC), Escherichia coli RGN 823; format: cell-based; conditions: RGN823; Table 1, bacterium 3: Escherichia coli RGN 823
Excerpt: as §1
3. Escherichia coli RGN 823

[3] = test system: Klebsiella pneumoniae GN 69; assay: Minimum Growth Inhibitory Concentration (MIC), Klebsiella pneumoniae GN 69; format: cell-based; conditions: GN69; Table 1, bacterium 4: Klebsiella pneumoniae GN 69
Excerpt: as §1
4. Klebsiella pneumoniae GN 69

Serratia marcescens N 01 = assay: Minimum Growth Inhibitory Concentration (MIC), Serratia marcescens N 01; format: cell-based; conditions: N01; Table 1, bacterium 7: Serratia marcescens N 01
Excerpt: as §1
7. Serratia marcescens N 01

[4] = test system: Enterobacter cloacae G0005; assay: Minimum Growth Inhibitory Concentration (MIC), Enterobacter cloacae G0005; format: cell-based; conditions: Table 1, bacterium 11: Enterobacter cloacae G0005
Excerpt: as §1
11. Enterobacter cloacae G0005

Bacillus subtilis = assay: Minimum Growth Inhibitory Concentration (MIC), Bacillus subtilis; format: cell-based; conditions: Table 1, bacterium 2: Bacillus subtilis
Excerpt: as §1

[5] = test system: Staphylococcus aureus 209PJC1; assay: Minimum Growth Inhibitory Concentration (MIC), Staphylococcus aureus 209PJC1; format: cell-based
Excerpt: as §1
1. Staphylococcus aureus 209PJC1
as §1
2. Staphylococcus aureus 209 PJC1

Proteus vulgaris GN 76 = assay: Minimum Growth Inhibitory Concentration (MIC), Proteus vulgaris GN 76; format: cell-based
Excerpt: as §1
10. Proteus vulgaris GN 76
as §1
8. Proteus vulgaris GN 76

Proteus vulgaris OX19 = assay: Minimum Growth Inhibitory Concentration (MIC), Proteus vulgaris OX19; format: cell-based; conditions: Table 1, bacterium 5: Proteus vulgaris OX19
Excerpt: as §1
5. Proteus vulgaris OX19

[6] = test system: Enterobacter cloacae G0006; assay: Minimum Growth Inhibitory Concentration (MIC), Enterobacter cloacae G0006; format: cell-based; conditions: Table 1, bacterium 6: Enterobacter cloacae G0006
Excerpt: as §1
6. Enterobacter cloacae G0006

[7] = test system: Cephalosporinase-producing Escherichia coli GN206; assay: Treatment of experimental infection in mice (Escherichia coli GN206); format: in vivo; conditions: intraperitoneal infection 1.25×10^6 CFU/mouse, subcutaneous one hour after infection, survival at one week
[8] = Serum concentration in mice after subcutaneous administration; format: in vivo; conditions: mouse, sc, subcutaneous 25 mg/kg; for concentration at 0.5 h: 1/2 hr; for concentration at 0.25 h: 1/4 hr; for concentration at 5 min: 1/12 hr
Protocol: The experiment was conducted by using 3 mice (average body weight 20 g) in each group, subcutaneously administering 25 mg/kg of the sample, taking blood samples at predetermined intervals, separating the serum and measuring the sample concentration by an antibacterial activity test using Escherichia coli as a testing bactera.

[9] = Toxicity test in mice (intravenous); format: in vivo; conditions: for LD50 at 168 h: mouse, in vivo
Excerpt: Further, the compound of Example 28 was intravenously adminstered to 3 mice at a dose of 1 g/kg and also the compounds of Examples 34 and 51 were similarly administered at a dose of 3 g/kg respectively, and the number of survivor was examined after a week.

[10] = test system: Escherichia coli NIHJ JC2; assay: Minimum Growth Inhibitory Concentration (MIC), Escherichia coli NIHJ JC2; format: cell-based; conditions: Escherichia coli, NIHJJC2, read-out: Minimum Growth Inhibitory Concentration (MIC)
Excerpt: as §1
3. Escherichia coli NIHJ JC2

[11] = test system: Serratia marcescens No. 2; assay: Minimum Growth Inhibitory Concentration (MIC), Serratia marcescens No. 2; format: cell-based; conditions: Serratia marcescens, NO.2, read-out: Minimum Growth Inhibitory Concentration (MIC)
Excerpt: as §1
10. Serratia marcescens No. 2

[12] = test system: Salmonella typhimurium LT2; assay: Minimum Growth Inhibitory Concentration (MIC), Salmonella typhimurium LT2; format: cell-based; conditions: Salmonella enterica, TYPHIMURIUM, read-out: Minimum Growth Inhibitory Concentration (MIC)
Excerpt: as §1
7. Salmonella typhimurium LT2

[13] = test system: Staphylococcus aureus Smith; assay: Minimum Growth Inhibitory Concentration (MIC), Staphylococcus aureus Smith; format: cell-based; conditions: Staphylococcus aureus, read-out: Minimum Growth Inhibitory Concentration (MIC)
Excerpt: as §1
1. Staphylococcus aureus Smith

Proteus rettgeri GN624 = assay: Minimum Growth Inhibitory Concentration (MIC), Proteus rettgeri GN624; format: cell-based; conditions: Providencia rettgeri, GN624, read-out: Minimum Growth Inhibitory Concentration (MIC)
Excerpt: as §1
9. Proteus rettgeri GN624

Eshcerichia coli GN 206 = assay: Minimum Growth Inhibitory Concentration (MIC), Escherichia coli GN 206; format: cell-based
Excerpt: as §1
4. Eshcerichia coli GN 206

Proteus mirabilis GN 79 = assay: Minimum Growth Inhibitory Concentration (MIC), Proteus mirabilis GN 79; format: cell-based; conditions: Proteus mirabilis, GN79, read-out: Minimum Growth Inhibitory Concentration (MIC)
Excerpt: as §1
6. Proteus mirabilis GN 79

[14] = test system: Klebsiella pneumoniae PCI 602; assay: Minimum Growth Inhibitory Concentration (MIC), Klebsiella pneumoniae PCI 602; format: cell-based; conditions: Klebsiella pneumoniae, PCI602, read-out: Minimum Growth Inhibitory Concentration (MIC)
Excerpt: as §1
5. Klebsiella pneumoniae PCI 602

[15] = Table 1, bacterium 1: Staphylococcus aureus 209PJC1, read-out: Minimum Growth Inhibitory Concentration (MIC)
[16] = GN76, Table 1, bacterium 10: Proteus vulgaris GN 76, read-out: Minimum Growth Inhibitory Concentration (MIC)

MIC [1] [mg/L]	MIC (Escherichia coli RGN 823) [mg/L]	MIC [3] [mg/L]	MIC (Serratia marcescens N 01) [mg/L]	MIC (Bacillus subtilis) [mg/L]	MIC [5, 15] [mg/L]	MIC (Proteus vulgaris OX19) [mg/L]	MIC [6] [mg/L]	SMILES	MIC [2] [mg/L]	MIC [4] [mg/L]	MIC (Proteus vulgaris GN 76; [16]) [mg/L]	ED50 [7] [mg/mouse]	concentration at 0.5 h [8] [µg/mL]	concentration at 0.25 h [8] [µg/mL]	concentration at 5 min [8] [µg/mL]	concentration at 1 h [8] [µg/mL]	other results
12.5	≤ 0.025	≤ 0.025	≤ 0.025	1.56	0.78			CO/N=C(\C(=O)N[C@@H]1C(=O)N2C(C(=O)[O-])=C(CSc3cc[n+](CCS(=O)(=O)O)c4c3CCC4)CS[C@H]12)c1csc(N)n1 [Example 39, (6R,7R)-7-[(Z)-2-(2-Aminothiazol-4-yl)-2-methoxyiminoacetamido]-3-[[2,3-cyclopenteno-1-(2-sulfoethyl)pyridinium-4-yl]thiomethyl]-ceph-3-em-4-carboxylic acid sodium salt]	6.25	0.1	0.2						
6.25 (≈ 11.1 µM)	≤ 0.025	≤ 0.025	0.05 (≈ 0.0892 µM)	1.56 (≈ 2.78 µM)	0.05 (≈ 0.0892 µM)	0.1 (≈ 0.178 µM)	0.78 (≈ 1.39 µM)	CO/N=C(\C(=O)N[C@@H]1C(=O)N2C(C(=O)[O-])=C(CSc3cc[n+](C)c4c3CCC4)CS[C@H]12)c1csc(N)n1 [Example 2, (6R,7R)-7-[(Z)-2-(2-Aminothiazol-4-yl)-2-methoxyiminoacetamido]-3-[(2,3-cyclopenteno-1-methylpyridinium-4-yl)thiomethyl]-ceph-3-em-4-carboxylate]									
6.25 (≈ 10.9 µM)	0.1 (≈ 0.174 µM)	0.1 (≈ 0.174 µM)	0.1 (≈ 0.174 µM)	0.2 (≈ 0.348 µM)	0.1 (≈ 0.174 µM)	0.2 (≈ 0.348 µM)	0.78 (≈ 1.36 µM)	CO/N=C(\C(=O)N[C@@H]1C(=O)N2C(C(=O)[O-])=C(CSc3cc(C)[n+](C)c4c3CCC4)CS[C@H]12)c1csc(N)n1 [Example 4, (6R,7R)-7-[(Z)-2-(2-Aminothiazol-4-yl)-2-methoxyiminoacetamido]-3-[(6-methyl-2,3-cyclopenteno-1-methylpyridinium-4-yl)thiomethyl]-ceph-3-em-4-carboxylate]									
12.5 (≈ 20.7 µM)	0.1 (≈ 0.166 µM)	0.05 (≈ 0.0828 µM)	0.1 (≈ 0.166 µM)	0.2 (≈ 0.331 µM)	0.1 (≈ 0.166 µM)			CO/N=C(\C(=O)N[C@@H]1C(=O)N2C(C(=O)[O-])=C(CSc3cc[n+](CC(N)=O)c4c3CCC4)CS[C@H]12)c1csc(N)n1 [Example 35, (6R,7R)-7-[(Z)-2-(2-Aminothiazol-4-yl)-2-methoxyiminoacetamido]-3-[(2,3-cyclopenteno-1-carbamoylmethylpyridinium-4-yl)thiomethyl]-ceph-3-em-4-carboxylate]	0.2 (≈ 0.331 µM)	0.2 (≈ 0.331 µM)	0.39 (≈ 0.646 µM)						
12.5 (≈ 22.3 µM)	≤ 0.025	≤ 0.025	0.05 (≈ 0.0892 µM)	1.56 (≈ 2.78 µM)	0.2 (≈ 0.357 µM)	0.39 (≈ 0.696 µM)	1.56 (≈ 2.78 µM)	CO/N=C(\C(=O)N[C@@H]1C(=O)N2C(C(=O)[O-])=C(CSc3ccc4c([n+]3C)CCC4)CS[C@H]12)c1csc(N)n1 [Example 1, (6R,7R)-7-[(Z)-2-(2-Aminothiazol-4-yl)-2-methoxyiminoacetamido]-3-[(5,6-cyclopenteno-1-methylpyridinium-2-yl)thiomethyl]-ceph-3-em-4-carboxylate]									
6.25 (≈ 9.66 µM)	0.2 (≈ 0.309 µM)	0.39 (≈ 0.603 µM)	0.05 (≈ 0.0773 µM)	12.5 (≈ 19.3 µM)	1.56 (≈ 2.41 µM)	0.1 (≈ 0.155 µM)	6.25 (≈ 9.66 µM)	C[n+]1c(SCC2=C(C(=O)[O-])N3C(=O)[C@@H](NC(=O)/C(=N\OC(C)(C)C(=O)O)c4csc(N)n4)[C@H]3SC2)ccc2c1CCCC2 [Example 18, (6R,7R)-7-[(Z)-2-(2-Aminothiazol-4-yl)-2-(1-methyl-1-carboxyethoxyimino)acetamido]-3-[(5,6-cyclohexeno-1-methylpyridinium-2-yl)thiomethyl]-ceph-3-em-4-carboxylate]									
								CCO/N=C(\C(=O)N[C@@H]1C(=O)N2C(C(=O)O)=C(CSc3cc[n+](CC(=O)O)cc3)CS[C@H]12)c1csc(N)n1.[Na+]				0.065	28.5	31	26	4	MIC [10]: 0.78 mg/L; MIC [11]: 0.2 mg/L; MIC [12]: 0.1 mg/L; MIC [13]: 0.78 mg/L; survival after a week ([9]; mice, intravenous, 1 g/kg): all the mice survived; LD50 at 168 h ([9]; mice, intravenous, survivors after a week): ≥ 1000 mg/kg; MIC (Proteus rettgeri GN624): 1.56 mg/L; MIC (Eshcerichia coli GN 206; GN206, read-out: Minimum Growth Inhibitory Concentration (MIC)): 0.39 mg/L; MIC (Eshcerichia coli GN 206; GN206, read-out: minimum growth inhibitory concentration (MIC)): 0.39 mg/L; MIC ([5]; Staphylococcus aureus, 209PJC1, read-out: Minimum Growth Inhibitory Concentration (MIC)): 0.39 mg/L; MIC (Proteus mirabilis GN 79): 0.39 mg/L; MIC [14]: 0.05 mg/L; MIC (Proteus vulgaris GN 76; Proteus vulgaris, GN76, read-out: Minimum Growth Inhibitory Concentration (MIC)): 0.1 mg/L
50 (≈ 75.6 µM)	1.56 (≈ 2.36 µM)	0.78 (≈ 1.18 µM)	1.56 (≈ 2.36 µM)	12.5 (≈ 18.9 µM)	3.13 (≈ 4.73 µM)	1.56 (≈ 2.36 µM)	6.25 (≈ 9.44 µM)	Cc1cc(SCC2=C(C(=O)[O-])N3C(=O)[C@@H](NC(=O)/C(=N\OC[C@@H](N)C(=O)O)c4csc(N)n4)[C@H]3SC2)c2c([n+]1C)CCCC2 [Example 12, (6R,7R)-7-[(Z)-2-(2-Aminothiazol-4-yl)-2-(2D-2-amino-2-carboxyethoxyimino)acetamido]-3-[(6-methyl-2,3-cyclohexeno-1-methylpyridinium-4-yl)thiomethyl]-ceph-3-em-4-carboxylate]									

SMILES	MIC [1] [mg/L]	MIC (Escherichia coli RGN 823) [mg/L]	MIC [3] [mg/L]	MIC (Serratia marcescens N 01) [mg/L]	MIC (Bacillus subtilis) [mg/L]	MIC [5, 15] [mg/L]	MIC (Proteus vulgaris OX19) [mg/L]	MIC [6] [mg/L]	MIC [2] [mg/L]	MIC [4] [mg/L]	MIC (Proteus vulgaris GN 76; [16]) [mg/L]	ED50 [7] [mg/mouse]	concentration at 0.5 h [8] [µg/mL]	concentration at 0.25 h [8] [µg/mL]	concentration at 5 min [8] [µg/mL]	concentration at 1 h [8] [µg/mL]	other results
CO/N=C(\C(=O)N[C@@H]1C(=O)N2C(C(=O)[O-])=C(CSc3cc[n+](CC(=O)O)c4c3CCC4)CS[C@H]12)c1csc(N)n1 [Example 34, (6R,7R)-7-[(Z)-2-(2-Aminothiazol-4-yl)-2-methoxyiminoacetamido]-3-[(2,3-cyclopenteno-1-carboxymethylpyridinium-4-yl)thiomethyl]-ceph-3-em-4-carboxylicacid sodium salt]	6.25	≤ 0.025	≤ 0.025	0.05	1.56	0.78			6.25	0.2	0.1	0.3	21	35	25	6.4	LD50 at 168 h ([9]; iv): ≥ 3000 mg/kg
C[n+]1ccc(SCC2=C(C(=O)[O-])N3C(=O)[C@@H](NC(=O)/C(=N\OCC(=O)O)c4csc(N)n4)[C@H]3SC2)c2c1CCC2 [Example 51, (6R,7R)-7-[(Z)-2-(2-Aminothiazol-4-yl)-2-(carboxymethoxyimino)acetamido]-3-[(2,3-cyclopenteno-1-methylpyridinium-4-yl)thiomethyl]-ceph-3-em-4-carboxylic acid sodium salt]	6.25	0.1	≤ 0.025	≤ 0.025	0.05	1.56			1.56	0.05	≤ 0.025	0.37	24	34	27	5.4	LD50 at 168 h ([9]; iv): ≥ 3000 mg/kg

Source: US4785090A, “Cephalosporin derivatives” (Meiji Seika Kaisha, Ltd., priority 1984, dated 1988)
